# Measured values as given in ChEMBL document CHEMBL1134130, “Carbonic anhydrase inhibitors: 4-sulfamoyl-benzenecarboxamides and 4-chloro-3-sulfamoyl-benzenecarboxamides with strong topical antiglaucoma properties” (Bioorg Med Chem Lett, 2001).
# How the values were obtained:
# Carbonic anhydrase 1 = Carbonic anhydrase 1 (Homo sapiens, UniProt P00915)
# Description: Binding affinity against human carbonic anhydrase I (hCA I)
# Carbonic anhydrase 4 [1] = target: T1, Carbonic anhydrase 4 (Bos taurus, UniProt Q95323)
# T1 sequence (Q95323 whole entry): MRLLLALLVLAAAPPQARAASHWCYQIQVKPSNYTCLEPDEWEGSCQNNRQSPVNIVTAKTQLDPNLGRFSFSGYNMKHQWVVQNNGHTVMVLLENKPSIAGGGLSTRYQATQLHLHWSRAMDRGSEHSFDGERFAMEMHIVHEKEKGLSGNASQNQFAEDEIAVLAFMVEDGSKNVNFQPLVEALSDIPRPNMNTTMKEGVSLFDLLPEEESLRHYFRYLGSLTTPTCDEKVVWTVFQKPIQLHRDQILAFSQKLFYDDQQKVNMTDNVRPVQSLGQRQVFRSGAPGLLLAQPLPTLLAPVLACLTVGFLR
# Description: Compound was evaluated for binding affinity against bovine carbonic anhydrase IV (bCA IV)
# Carbonic anhydrase 2 = Carbonic anhydrase 2 (Homo sapiens, UniProt P00918)
# Description: Binding affinity against human carbonic anhydrase II (hCA -II)
# Oryctolagus cuniculus [2] = species on record: Oryctolagus cuniculus
# Description: Fall of in vivo intraocular pressure (IOP) of glaucomatous rabbits at 120 min after treatment with one drop (50 uL) solution of 2% of CA inhibitor directly into eye
# physchem = conditions: octanol/water
# Description: Partition coefficient (logP)
# Oryctolagus cuniculus [3] = species on record: Oryctolagus cuniculus; remark: listed apart in the source
# Description: In vivo intraocular pressure (IOP) lowering at 30 min in normotensive rabbits after treatment with one drop (50 uL) 2% solution of CA inhibitor directly into the eye, at 7.0 pH
# Oryctolagus cuniculus [4] = species on record: Oryctolagus cuniculus; remark: listed apart in the source
# Description: Fall of in vivo intraocular pressure (IOP) of glaucomatous rabbits at 90 min after treatment with one drop (50 uL) solution of 2% of CA inhibitor directly into eye
# Oryctolagus cuniculus [5] = species on record: Oryctolagus cuniculus; remark: listed apart in the source
# Description: Fall of in vivo intraocular pressure (IOP) of glaucomatous rabbits at 0 min after treatment with one drop (50 uL) solution of 2% of CA inhibitor directly into eye
# Oryctolagus cuniculus [6] = species on record: Oryctolagus cuniculus; remark: listed apart in the source
# Description: In vivo intraocular pressure (IOP) lowering at 120 min in normotensive rabbits after treatment with one drop (50 uL) 2% solution of CA inhibitor directly into the eye, at 7.0 pH
# Oryctolagus cuniculus [7] = species on record: Oryctolagus cuniculus; remark: listed apart in the source
# Description: In vivo intraocular pressure (IOP) lowering at 60 min in normotensive rabbits after treatment with one drop (50 uL) 2% solution of CA inhibitor directly into the eye, at 7.0 pH
# Oryctolagus cuniculus [8] = species on record: Oryctolagus cuniculus; remark: listed apart in the source
# Description: Fall of in vivo intraocular pressure (IOP) of glaucomatous rabbits at 30 min after treatment with one drop (50 uL) solution of 2% of CA inhibitor directly into eye
# [9] = Compound was evaluated for in vitro corneal permeability in cornea intact; assay type: ADME, tissue-based
# Oryctolagus cuniculus [10] = species on record: Oryctolagus cuniculus; remark: listed apart in the source
# Description: Fall of in vivo intraocular pressure (IOP) of glaucomatous rabbits at 60 min after treatment with one drop (50 uL) solution of 2% of CA inhibitor directly into eye
# [11] = Compound was evaluated for in vitro corneal permeability in no epithelium; assay type: ADME, tissue-based, Cornea
# Oryctolagus cuniculus [12] = species on record: Oryctolagus cuniculus; remark: listed apart in the source
# Description: In vivo intraocular pressure (IOP) lowering at 90 min in normotensive rabbits after treatment with one drop (50 uL) 2% solution of CA inhibitor directly into the eye, at 7.0 pH
# Carbonic anhydrase 4 [13] = target: T1, Carbonic anhydrase 4; remark: listed apart in the source
# Description: Compound was evaluated for binding affinity against bovine Carbonic anhydrase IV
# Carbonic anhydrase 1, sequence (P00915 whole entry): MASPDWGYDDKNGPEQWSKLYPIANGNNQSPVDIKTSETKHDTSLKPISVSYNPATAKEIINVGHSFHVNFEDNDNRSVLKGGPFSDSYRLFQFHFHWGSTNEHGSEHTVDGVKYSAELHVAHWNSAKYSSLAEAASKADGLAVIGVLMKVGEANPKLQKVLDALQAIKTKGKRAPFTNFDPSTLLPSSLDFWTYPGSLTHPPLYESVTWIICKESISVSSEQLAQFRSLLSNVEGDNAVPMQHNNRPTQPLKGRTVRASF
Ki (Carbonic anhydrase 1) [µM],Ki (Carbonic anhydrase 4 [1]) [µM],Ki (Carbonic anhydrase 2) [µM],SMILES,further results
0.105,0.24,0.16,NS(=O)(=O)c1cc(C(=O)N[C@H](C(=O)O)c2ccccc2)ccc1Cl,–
0.024,0.066,0.03,NS(=O)(=O)c1ccc(NC(=O)c2ccc(Cl)c(S(N)(=O)=O)c2)cc1,–
0.24,0.33,0.275,NC(=O)C[C@H](NC(=O)c1ccc(Cl)c(S(N)(=O)=O)c1)C(=O)O,–
0.32,0.024,0.012,C[C@H](NC(=O)c1ccc(S(N)(=O)=O)cc1)C(=O)N[C@@H](Cc1ccccc1)C(=O)O,–
0.103,0.35,0.21,NS(=O)(=O)c1cc(C(=O)N[C@@H](Cc2c[nH]cn2)C(=O)O)ccc1Cl,–
0.21,0.6,0.45,NS(=O)(=O)c1cc(C(=O)NCC(=O)O)ccc1Cl,–
0.475,0.35,0.115,C[C@@H](O)[C@H](NC(=O)c1ccc(S(N)(=O)=O)cc1)C(=O)O,–
0.039,0.08,0.051,CC(C)C[C@H](NC(=O)c1ccc(Cl)c(S(N)(=O)=O)c1)C(=O)NCC(=O)O,–
0.425,0.16,0.075,NC(=O)CC[C@H](NC(=O)c1ccc(S(N)(=O)=O)cc1)C(=O)O,–
0.135,0.34,0.25,NS(=O)(=O)c1cc(C(=O)N[C@@H](Cc2ccccc2)C(=O)O)ccc1Cl,–
0.03,0.05,0.036,NS(=O)(=O)c1cc(C(=O)NCCC(=O)N[C@@H](Cc2cnc[nH]2)C(=O)O)ccc1Cl,–
0.27,0.125,0.04,NS(=O)(=O)c1ccc(C(=O)N[C@@H](Cc2cnc[nH]2)C(=O)O)cc1,–
0.4,0.15,0.066,CSCC[C@H](NC(=O)c1ccc(S(N)(=O)=O)cc1)C(=O)O,–
0.15,0.36,0.28,CC[C@H](C)[C@H](NC(=O)c1ccc(Cl)c(S(N)(=O)=O)c1)C(=O)O,–
0.535,0.12,0.045,NS(=O)(=O)c1ccc(C(=O)N[C@@H](Cc2ccc(O)cc2)C(=O)O)cc1,–
0.415,0.12,0.073,NS(=O)(=O)c1ccc(C(=O)NCCCC(=O)O)cc1,–
0.35,0.05,0.042,NS(=O)(=O)c1ccc(C(=O)NCC(=O)NCC(=O)O)cc1,–
0.037,0.098,0.062,NS(=O)(=O)c1cc(C(=O)N[C@H](C(=O)O)C(O)c2ccccc2)ccc1Cl (stereo partly drawn),–
0.035,0.015,0.003,NS(=O)(=O)c1ccc(C(=O)Nc2nnc(S(N)(=O)=O)s2)cc1,–

Ki (Carbonic anhydrase 1) [µM],Ki (Carbonic anhydrase 4 [1]) [µM],Ki (Carbonic anhydrase 2) [µM],SMILES,further results
0.205,0.61,0.45,NS(=O)(=O)c1cc(C(=O)NCCC(=O)O)ccc1Cl,–
0.305,0.4,0.34,NS(=O)(=O)c1cc(C(=O)N[C@@H](CCC(=O)O)C(=O)O)ccc1Cl,–
0.405,0.09,0.053,CC(C)C[C@H](NC(=O)c1ccc(S(N)(=O)=O)cc1)C(=O)O,–
0.25,0.075,0.036,NS(=O)(=O)c1ccc(C(=O)NC(C(=O)O)c2ccccc2)cc1 (stereo not drawn),–
0.52,0.105,0.043,NS(=O)(=O)c1ccc(C(=O)NC(Cc2ccc(O)c(O)c2)C(=O)O)cc1 (stereo not drawn),–
0.041,0.073,0.05,NS(=O)(=O)c1cc(C(=O)N[C@@H](Cc2c[nH]cn2)C(=O)NCC(=O)O)ccc1Cl,–
0.25,0.41,0.305,NC(=O)CC[C@H](NC(=O)c1ccc(Cl)c(S(N)(=O)=O)c1)C(=O)O,–
0.024,0.061,0.028,NS(=O)(=O)c1ccc(CNC(=O)c2ccc(Cl)c(S(N)(=O)=O)c2)cc1,–
0.425,0.075,0.079,C[C@H](NC(=O)c1ccc(S(N)(=O)=O)cc1)C(=O)O,–
0.45,0.23,0.11,NS(=O)(=O)c1ccc(C(=O)N[C@@H](CS)C(=O)O)cc1,–
0.285,0.355,0.3,NS(=O)(=O)c1cc(C(=O)N[C@@H](CC(=O)O)C(=O)O)ccc1Cl,–
0.43,0.16,0.074,NS(=O)(=O)c1ccc(C(=O)N[C@@H](CCC(=O)O)C(=O)O)cc1,–
0.425,0.15,0.073,NS(=O)(=O)c1ccc(C(=O)N[C@@H](CC(=O)O)C(=O)O)cc1,–
0.32,0.735,0.52,C[C@@H](O)[C@H](NC(=O)c1ccc(Cl)c(S(N)(=O)=O)c1)C(=O)O,–
0.41,0.155,0.072,NC(=O)C[C@H](NC(=O)c1ccc(S(N)(=O)=O)cc1)C(=O)O,–
0.24,0.65,0.41,CSCC[C@H](NC(=O)c1ccc(Cl)c(S(N)(=O)=O)c1)C(=O)O,–
0.5,–,0.085,NS(=O)(=O)c1ccc(C(=O)NCC(=O)O)cc1,Ki (Carbonic anhydrase 4 [13]): 0.2 µM
0.17,0.395,0.29,NS(=O)(=O)c1cc(C(=O)N[C@@H](CO)C(=O)O)ccc1Cl,–
0.2,0.54,0.4,NS(=O)(=O)c1cc(C(=O)NCCCC(=O)O)ccc1Cl,–

Ki (Carbonic anhydrase 1) [µM],Ki (Carbonic anhydrase 4 [1]) [µM],Ki (Carbonic anhydrase 2) [µM],SMILES,further results
0.069,0.17,0.085,NS(=O)(=O)c1cc(C(=O)NCC(=O)NCC(=O)O)ccc1Cl,–
0.1,0.33,0.24,NS(=O)(=O)c1cc(C(=O)NC(Cc2ccc(O)c(O)c2)C(=O)O)ccc1Cl (stereo not drawn),–
0.04,0.016,0.007,NS(=O)(=O)c1ccc(CNC(=O)c2ccc(S(N)(=O)=O)cc2)cc1,–
0.3,0.72,0.49,NS(=O)(=O)c1cc(C(=O)N[C@@H](CS)C(=O)O)ccc1Cl,–
0.435,–,0.085,NS(=O)(=O)c1ccc(C(=O)NCCC(=O)O)cc1,Ki (Carbonic anhydrase 4 [13]): 0.19 µM
0.13,0.36,0.33,CC(C)[C@H](NC(=O)c1ccc(Cl)c(S(N)(=O)=O)c1)C(=O)O,–
0.42,0.15,0.074,CC(C)[C@H](NC(=O)c1ccc(S(N)(=O)=O)cc1)C(=O)O,–
–,0.013,–,NS(=O)(=O)c1ccc(CCNC(=O)c2ccc(S(N)(=O)=O)cc2)cc1,logP (physchem): 1.43; Km x10e3 [9]: 2.5 hr-1; Km x10e3 [11]: 6.3 hr-1
0.054,0.062,0.021,NS(=O)(=O)c1ccc(C(=O)N[C@H](C(=O)O)C(O)c2ccccc2)cc1 (stereo partly drawn),–
0.175,0.475,0.42,C[C@H](NC(=O)c1ccc(Cl)c(S(N)(=O)=O)c1)C(=O)O,–
0.125,0.33,0.305,CC(C)C[C@H](NC(=O)c1ccc(Cl)c(S(N)(=O)=O)c1)C(=O)O,–
0.036,0.072,0.044,C[C@H](NC(=O)c1ccc(Cl)c(S(N)(=O)=O)c1)C(=O)N[C@@H](Cc1ccccc1)C(=O)O,–
0.115,0.325,0.25,NS(=O)(=O)c1cc(C(=O)N[C@@H](Cc2ccc(O)cc2)C(=O)O)ccc1Cl,–
0.027,0.045,0.038,NS(=O)(=O)c1cc(C(=O)N[C@@H](Cc2c[nH]cn2)C(=O)N[C@@H](Cc2ccccc2)C(=O)O)ccc1Cl,–
0.44,0.325,0.12,NS(=O)(=O)c1ccc(C(=O)N[C@@H](CO)C(=O)O)cc1,–
0.015,0.021,0.011,NS(=O)(=O)c1cc(C(=O)Nc2nnc(S)s2)ccc1Cl,–
0.021,0.063,0.026,NS(=O)(=O)c1ccc(CCNC(=O)c2ccc(Cl)c(S(N)(=O)=O)c2)cc1,–
0.56,0.13,0.052,NS(=O)(=O)c1ccc(C(=O)N[C@@H](Cc2ccccc2)C(=O)O)cc1,–
0.35,0.086,0.048,"CCC(C)[C@H](NC(=O)c1ccc(S(N)(=O)=O)cc1)C(=O)O (single isomer, unassigned)",–

SMILES,Ki (Carbonic anhydrase 1) [µM],Ki (Carbonic anhydrase 4 [1]) [µM],Ki (Carbonic anhydrase 2) [µM],further results
NS(=O)(=O)c1ccc(C(=O)N[C@@H](Cc2c[nH]cn2)C(=O)N[C@@H](Cc2ccccc2)C(=O)O)cc1,0.24,0.023,0.009,Delta IOP (Oryctolagus cuniculus [2]): 10 mmHg; logP (physchem): 1.74; Delta IOP (Oryctolagus cuniculus [3]): 4.2 mmHg; Delta IOP (Oryctolagus cuniculus [4]): 11 mmHg; Delta IOP (Oryctolagus cuniculus [5]): 0 mmHg; Delta IOP (Oryctolagus cuniculus [6]): 9.5 mmHg; Delta IOP (Oryctolagus cuniculus [7]): 6.5 mmHg; Delta IOP (Oryctolagus cuniculus [8]): 7.1 mmHg; Km x10e3 [9]: 2.9 hr-1; Delta IOP (Oryctolagus cuniculus [10]): 12 mmHg; Km x10e3 [11]: 5.8 hr-1; Delta IOP (Oryctolagus cuniculus [12]): 9.1 mmHg
NS(=O)(=O)c1ccc(C(=O)NCCC(=O)N[C@@H](Cc2c[nH]cn2)C(=O)O)cc1,0.27,0.021,0.016,–
NS(=O)(=O)c1ccc(C(=O)N[C@@H](Cc2c[nH]cn2)C(=O)NCC(=O)O)cc1,0.38,0.019,0.01,–
